Usually pKa stands for the negative logarithm of the acid dissociation constant.

The text below walks through data of patent US7087424B1, “Method of controlling fungal pathogens, and agents useful for same” (priority 1999, dated 2006).

One data set relates to take-all fungus. Kind of data set: agar overlay / PDA plate bioassay against take-all fungus. It counts as cell-based, G. graminis var tritici. The settings on record: for inhibition zone against take-all fungus: FIG. 6B, 12.5 mg purified sugar acid, agar overlay bioassay; for zone of inhibition at 7500 µg/disc / zone of inhibition at 12500 µg/disc / zone of inhibition at 25000 µg/disc: Gaeumannomyces graminis, read-out: Clearance zone radii; for zone of inhibition at 7500 µg/disc: amount 7.5 mg; for zone of inhibition at 12500 µg/disc: amount 12.5 mg; for zone of inhibition at 25000 µg/disc: amount 25.0 mg; for bioactivity against take-all: purified acids, PDA plate bioassay, FIG. 6A/6B; for protection against take-all: summary of Table 2. An excerpt: A modification of the agar plug assay (Poplawsky et al., 1988) was used to assay for bioactivity of extracts of Pseudomonas strain AN5, or derivative strains thereof, against take-all fungus, wherein an agar overlay assay was used to test activity of specific fractions. This assay involves macerating the take-all fungus grown in Potato Dextrose (PD) broth and seeding it to a Potato Dextrose Agar (PDA) overlay. This PDA overlay was poured onto thick PDA plates. Fractions to be tested for activity were spotted on top of the overlay, and the plates were dried and incubated at 16° C. for 3–5 days.
Active fractions were identified by the appearance of a clearance zone in the plates, within an opaque background of cultured fungus.

Data set [1] is described as follows: media pH with purified acids (Table 2). Format: physicochemical.
Data set [2] deals with Botrytis fabae (Chocolate Spot Fungus). Description: in vitro bioassays against B. fabae. Format: cell-based. The source says:
Accordingly, it is within the scope of the present invention to produce transgenic faba bean plants which produce sugar acids, using the methods described herein, to enhance tolerance of faba beans to B. fabae.

The conditions of data set [3]: cited from earlier work.
For data set [4] the following is noted: cited from earlier work. The source holds these as a separate data set.

Read-outs that look alike come from different tables or passages of the source.

As for `O=C[C@H](O)[C@@H](O)[C@H](O)[C@H](O)C(=O)O` [Glucuronic acid, glucuronic acid], in the data set on take-all fungus, the “inhibition zone against take-all fungus” value is “strong inhibition zones”, the zone of inhibition at 7500 µg/disc is 0 mm, the zone of inhibition at 12500 µg/disc is 10 mm and the zone of inhibition at 25000 µg/disc was found to be 20 mm. In the data set on take-all fungus, the bioactivity against take-all result was “possessed activity”. Also, in data set [1] (amount 25.0 mg), the “media pH” value was determined as 1.7.
Consider `O=C1O[C@H]([C@@H](O)CO)C(O)=C1O` [Ascorbic acid, ascorbic acid], for which, in the data set on take-all fungus, the “inhibition zone against take-all fungus” value is “strong inhibition zones”, the zone of inhibition at 7500 µg/disc came to 0 mm, the zone of inhibition at 12500 µg/disc turned out to be 9 mm and the zone of inhibition at 25000 µg/disc stood at 20 mm. Besides, the bioactivity against take-all entry in the data set with take-all fungus is on record as “possessed activity”. Also, in data set [1] (amount 25.0 mg), the “media pH” value was found to be 1.9.
Turning to `O=C(O)CC(O)C(=O)O` (stereo not shown) [Malic acid, malic acid], in the data set on take-all fungus, the “inhibition zone against take-all fungus” value is recorded as “strong inhibition zones”, the zone of inhibition at 7500 µg/disc was determined as 10 mm, the zone of inhibition at 12500 µg/disc was found to be 20 mm and the zone of inhibition at 25000 µg/disc was 25 mm. Moreover, the bioactivity against take-all result in the data set on take-all fungus is given as “possessed activity”. The “media pH” value in data set [1] (amount 25.0 mg) was determined as 1.5.
`O=C([O-])[C@H](O)[C@@H](O)[C@H](O)[C@H](O)CO.[Na+]` [Sodium gluconate, reference compound]: in the data set with take-all fungus, the zone of inhibition at 7500 µg/disc was determined as 0 mm, the zone of inhibition at 12500 µg/disc was 0 mm, the zone of inhibition at 25000 µg/disc came to 0 mm and the protection against take-all result is recorded as “did not confer significant protection”. The “media pH” value in data set [1] (amount 25.0 mg) is given as “about 7.0”.
With `O=C(O)[C@H](O)[C@@H](O)[C@H](O)[C@H](O)CO` [Gluconic acid, gluconic acid], in data set [2], the “suppression of growth of B. fabae” value is recorded as “suppress the growth and/or reproduction”. Further, in the data set with take-all fungus (FIG. 6A, 25, 15, 12.5, 7.5 mg pure gluconic acid), the “relation of amount used to size of inhibition zone” value is “positive correlation”. In addition, in the data set with take-all fungus, the zone of inhibition at 7500 µg/disc came out at 7 mm, the zone of inhibition at 12500 µg/disc turned out to be 10 mm, the zone of inhibition at 25000 µg/disc stood at 20 mm and the bioactivity against take-all entry was “strong biologically activity”. Also, the protection against take-all entry in the data set with take-all fungus is “confers protection”. The “media pH” value in data set [1] (amount 25.0 mg) is “about 5.0”.
Consider `O=C(O)CCCC(=O)O` [Glutaric acid, glutaric acid], for which, in the data set on take-all fungus, the “inhibition zone against take-all fungus” value was “strong inhibition zones”, the zone of inhibition at 7500 µg/disc worked out at 15 mm, the zone of inhibition at 12500 µg/disc is 20 mm and the zone of inhibition at 25000 µg/disc is 25 mm. The bioactivity against take-all result in the data set with take-all fungus is recorded as “possessed activity”. For the same compound, in data set [1] (amount 25.0 mg), the “media pH” value was 2.0. Also, the pKa in data set [3] is listed as 4.31.
As to `O=C(O)c1cccc2nc3ccccc3nc12` [PCA, Phenazine-1-carboxylic acid], the solubility entry in data set [4] (in chloroform and methylene chloride) is recorded as “highly soluble”; in data set [4] (in water, methanol and ethyl acetate), “insoluble”.
`CC(=O)O` [Acetic acid, reference compound]: in data set [1] (amount 4.2 to 8.4 mg), the “media pH” value was found to be 2.4.
Consider `O=C[C@H](O)[C@@H](O)[C@@H](O)[C@H](O)C(=O)O` [Galacturonic acid, galacturonic acid], for which, in the data set on take-all fungus, the “biological activity against take-all relative to gluconic acid” value is recorded as “not as strong as gluconic acid”, the zone of inhibition at 7500 µg/disc was 7 mm, the zone of inhibition at 12500 µg/disc is 20 mm and the zone of inhibition at 25000 µg/disc is 25 mm. The “media pH” value in data set [1] (amount 25.0 mg) came out at 1.7.
